Where a chain is given by its changes, count along the chain named. Like-named read-outs stand apart in the source and are kept apart here.
Tests used:
AR [1] = target: T1, AR (Homo sapiens, UniProt P10275); test: AR target gene expression in XIP-AR cells; conditions: in the presence of R1881
T1 sequence (P10275 1-920): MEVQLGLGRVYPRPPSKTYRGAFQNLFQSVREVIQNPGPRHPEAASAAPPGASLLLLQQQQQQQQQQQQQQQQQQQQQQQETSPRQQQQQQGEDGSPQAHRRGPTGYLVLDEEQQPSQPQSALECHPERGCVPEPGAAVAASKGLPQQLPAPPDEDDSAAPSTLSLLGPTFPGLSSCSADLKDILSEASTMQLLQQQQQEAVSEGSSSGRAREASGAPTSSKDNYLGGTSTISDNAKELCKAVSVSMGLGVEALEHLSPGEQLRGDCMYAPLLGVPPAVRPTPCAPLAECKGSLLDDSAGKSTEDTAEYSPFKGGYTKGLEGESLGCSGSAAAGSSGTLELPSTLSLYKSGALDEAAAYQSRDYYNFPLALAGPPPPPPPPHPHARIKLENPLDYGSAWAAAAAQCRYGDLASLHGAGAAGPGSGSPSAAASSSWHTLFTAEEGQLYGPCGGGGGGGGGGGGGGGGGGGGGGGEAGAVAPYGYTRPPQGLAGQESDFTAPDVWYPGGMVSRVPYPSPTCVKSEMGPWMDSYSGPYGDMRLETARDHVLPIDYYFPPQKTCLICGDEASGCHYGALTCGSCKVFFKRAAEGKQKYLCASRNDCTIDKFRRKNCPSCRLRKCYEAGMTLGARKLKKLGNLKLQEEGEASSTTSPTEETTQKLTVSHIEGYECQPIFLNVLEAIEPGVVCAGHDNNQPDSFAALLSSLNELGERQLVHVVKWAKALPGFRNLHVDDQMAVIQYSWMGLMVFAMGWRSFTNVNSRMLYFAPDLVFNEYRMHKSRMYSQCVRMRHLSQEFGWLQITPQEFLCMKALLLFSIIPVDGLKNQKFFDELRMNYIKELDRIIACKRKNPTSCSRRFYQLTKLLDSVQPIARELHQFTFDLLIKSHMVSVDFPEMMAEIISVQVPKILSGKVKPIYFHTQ

androgen receptor = test: Whole-cell competition binding assay using 3H-R1881; conditions: whole cells; mutant AR and WT-AR
[2] = test system: LNCaP (AR-T877A) xenograft; test: LNCaP xenograft model of prostate cancer in mice; format: in vivo
Excerpt: Our goal in this example is to identify small molecules that block activity of mutant androgen receptors (ARs) but not wild type AR, by synthesizing a library of compounds, to explore possible mechanisms of action, and to evaluate therapeutic potential. A total of 75 tetra-aryl substituted cyclobutanes (CBs) were synthesized. FIG. 18 illustrates a general reaction scheme for the synthesis of some of these compounds from the photo cycloaddition of 2,4-dichloro-6-styrylpyrimidine. FIG. 19 illustrates a general reaction scheme for the synthesis from the photo cycloaddition of 2,4-disubstituted 6-styrylpyrimidines. LNCaP cell proliferation was evaluated. LNCaP cells are a cell line of human cells commonly used in the field of oncology. LNCaP cells are androgen-sensitive human prostate adenocarcinoma cells derived from the left supraclavicular lymph node metastasis from a person in 1977. They are adherent epithelial cells growing in aggregates and as single cells. […] . FIGS. 21A, B, C, and D are graphic summaries of the results for cyclobutane compound CB-7. […] Prostate cancer was the most common tumor among men in the United States in 2012, with over 240,000 diagnoses and approximately 28,000 deaths. […] . FIG. 23 illustrates the androgen receptor ligand binding domain bound to testosterone. FIG. 24 illustrates mouse survival data from a mutant androgen receptor-T877A xenograft experiment for CB-7 at various concentrations. […] . FIGS. 25A and B provide data on AR mutant selectivity for compounds CB-1 to CB-8. […] It is seen that the cyclobutanes show selectivity of mutant androgen receptor activation in the luciferase transcriptional assay in CV-1 cells (a commercially available cell line derived from the kidney of an African green monkey). FIGS. 26 and 27A and B illustrate data from a ligand competition assay for compounds CB-1, CB-6, and CB-7.
Based on the above results, we further evaluated the effects of CB 10 in vivo. […] We also utilized a traditional in vivo model of prostate cancer, the LNCaP xenograft model.

LNCaP cells = test: LNCaP cell proliferation; conditions: androgen-stimulated LNCaP cells
AR [3] = target: T1, AR; test: Chromatin immunoprecipitation of AR at androgen-response elements in XIP-AR cells
AR [4] = target: T1, AR; test: Cellular location of AR by microscopy
[5] = target: T2, T877A mutant androgen receptor (Homo sapiens, UniProt P10275, T878A); test: FKBP51 endogenous gene expression in LNCaP-XIP cells; format: cell-based; conditions: FKBP51 expression, T877A mutant receptor
T2 construct: endogenous in cells; host or cells: LNCaP-XIP
T2 sequence (P10275 1-920 T878A): T1 sequence (P10275 1-920) with T878A
Excerpt: (§1) FIG. 44 depicts data for dose-dependent inhibition of androgen receptor-dependent endogenous gene expression of FKBP51 by Compound 1 of Example IV in LNCaP cells producing exclusively T877A mutant androgen receptor (LNCaP-XIP) and LNCaP cells transfected with wild type androgen receptor (LNCaP-androgen receptor, ratio of wild type to T877A receptor is ca. 3:1).
(§2) To more fully characterize the selectivity of compound 1 for the mutant receptor, we measured its inhibitory potential against the WT and T877A mutant receptor in an AR-dependent luciferase transcription assay in CV-1 cells (FIGS. 43A and B).

[6] = test system: wild type androgen receptor; test: FKBP51 endogenous gene expression in LNCaP-AR cells (wild type AR overexpressed); format: cell-based, human; conditions: at 20 M (so in the source)
Excerpt: as §1, §2

AR [7] = target: T1, AR; test: AR relative binding affinity (RBA)
XIP-AR cells = test: XIP-AR cell proliferation; conditions: XIP-AR overexpressing cells

Structure (SMILES): COc1cc(C2C(c3ccccc3)C(c3cc(OC)nc(OC)n3)C2c2ccccc2)nc(OC)n1 (centres unmarked) [CB 1]
- reversal of androgen stimulated gene expression (AR [1]): less effective
- competition with 3H-R1881 for binding to AR (androgen receptor): effectively compete against R1881 binding

Structure (SMILES): Clc1nccc([C@H]2[C@H](c3ccccc3)[C@@H](c3ccnc(Cl)n3)[C@H]2c2ccccc2)n1 [CB 10]
- reversal of androgen stimulated gene expression (AR [1]): reverse androgen stimulated gene expression similar to MDV
- competition with 3H-R1881 for binding to AR (androgen receptor): effectively compete against R1881 binding
- tumor weight at study termination ([2]; escalating dose 5 mpk to 100 mpk): significant dose dependent inhibition of tumor growth
- tumor growth ([2]; intact male mice bearing LNCaP xenografts, 50 mpk or 100 mpk): significantly inhibited
- inhibition of LNCaP cell proliferation (LNCaP cells): equally as well as MDV
- AR recruitment to androgen-response elements of PSA and NKX3.1 (AR [3]): inhibit the recruitment
- cellular location of AR after treatment (AR [4]; microscopy): AR is primarily outside of the nucleus

Structure (SMILES): Cc1cc([C@H]2[C@H](c3ccccc3)[C@H](c3cc(C)nc(C)n3)[C@H]2c2ccccc2)nc(C)n1 [CB-49]
- concentration at which maximal inhibition is obtained [5]: 6 µM
- inhibition of FKBP51 gene expression [6]: ca. 80%
- AR RBA (AR [7]): 0.027%

Structure (SMILES): CC(C)(O)C(=O)Nc1ccc([N+](=O)[O-])c(C(F)(F)F)c1 [OHF, hydroxyflutamide, reference compound]
- cell proliferation, compound alone (XIP-AR cells): promote cell proliferation

Structure (SMILES): C[C@]1(O)CC[C@H]2[C@@H]3CCC4=CC(=O)CCC4=C3C=C[C@@]21C [R1881, reference compound]
- cellular location of AR after treatment (AR [4]): promote nuclear translocation

Source: patent US9868705B2, “Tetra-aryl cyclobutane inhibitors of androgen receptor action for the treatment of hormone refractory cancer” (The Board of Trustees of the University of Illinois, priority 2013, dated 2018)
